Legend:
[1] = test system: Treg cells; assay: Treg expansion in activated mouse splenocytes in vitro; format: cell-based; conditions: mouse splenocytes stimulated with anti-CD3 and anti-CD28 for 96 hours; FIG. 1
Protocol: Mouse splenocytes were harvested and single cell suspension stimulated in vitro with anti-CD3 and anti-CD28 antibodies for 96 hours. Treatment with 6-(4-tert-butylphenoxy)pyridin-3-amine, during the same interval of time, caused an expansion of immunosuppressive regulatory T cells (Tregs). Each bar represents the mean±SD (N=3 replicates).
Human PBMCs and mouse splenocyte in vitro stimulation and treatment: Human peripheral blood mononuclear cells (PBMCs) and mouse splenocytes from donors were stimulated in vitro with anti-CD3 and anti-CD28 antibodies. The stimulated cells were simultaneously treated with compounds for 96 hours. The T cells were profiled for different cell surface and intracellular markers and proliferation by flow cytometry.
Flow cytometry analysis: Flow cytometry analysis was performed to quantify cell surface and intracellular markers expression and measure cell division index.
Viability staining: Cells were transferred into a 96 well conical bottom plate and washed with serum free PBS1×. Cells were incubated with Zombie NIR (Biolegend #423105)+FC block ([…]) for 20 minutes at 4° C. […]
FOXP3 nuclear staining: Cells were fixed and permeabilized with Foxp3 Transcription Factor Staining Buffer Set (ThermoFisher #00-5523) for 20 minutes at room temperature. […] Results are finally analysed with the software FlowJo v.10.7.1.

[2] = test system: IL-10; assay: Cytokine profiling in human patient plasma (MSD): IL-10; format: in vivo; conditions: vs baseline
Protocol: Cytokine profiling in human plasma samples: Plasma samples from patients treated with 6-(4-tert-butylphenoxy)pyridin-3-amine were collected and stored at −80° C. until analysed. Cytokine and chemokine profiling was performed using MesoScale Discovery (MSD) platform and three assay panels: 1) Pro-inflammatory panel human, 2) Human IL-6 assay S-Plex, 3) Human IL-10 assay S-Plex.

CC(C)(C)c1ccc(Oc2ccc(N)cn2)cc1 [6-(4-tert-butylphenoxy)pyridin-3-amine]
expansion of Treg cells [1]: expansion of Treg cells
Percentage upregulation of IL-10 in blood plasma [2]: 60%
